In ChEMBL document CHEMBL1142837, “Synthesis of new carbo- and heterocyclic analogues of 8-HETE and evaluation of their activity towards the PPARs” (Bioorg Med Chem Lett, 2005):

Tests used:
[1] = target: T1, Peroxisome proliferator-activated receptor gamma (Homo sapiens, UniProt P37231); test: In vitro effective concentration against human peroxisome proliferator activated receptor gamma/Gal4 in cell-based transactivation assay; assay type: functional
T1 sequence (P37231 whole entry): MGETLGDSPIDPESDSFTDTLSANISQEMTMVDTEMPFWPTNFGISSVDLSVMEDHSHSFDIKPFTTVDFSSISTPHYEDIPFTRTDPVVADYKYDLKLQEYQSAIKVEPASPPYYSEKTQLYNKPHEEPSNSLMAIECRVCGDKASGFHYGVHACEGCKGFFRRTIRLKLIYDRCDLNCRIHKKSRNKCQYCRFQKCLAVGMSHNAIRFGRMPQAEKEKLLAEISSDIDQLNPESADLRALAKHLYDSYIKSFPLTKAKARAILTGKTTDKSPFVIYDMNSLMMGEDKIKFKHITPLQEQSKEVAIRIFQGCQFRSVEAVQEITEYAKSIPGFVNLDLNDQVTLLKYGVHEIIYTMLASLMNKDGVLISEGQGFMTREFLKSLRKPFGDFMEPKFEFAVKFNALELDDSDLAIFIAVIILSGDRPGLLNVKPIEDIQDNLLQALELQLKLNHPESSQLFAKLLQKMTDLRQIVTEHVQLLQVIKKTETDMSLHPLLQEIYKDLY

[2] = target: T1, Peroxisome proliferator-activated receptor gamma
[3] = target: T2, Peroxisome proliferator-activated receptor alpha (Homo sapiens, UniProt Q07869); test: In vitro effective concentration against human peroxisome proliferator activated receptor alpha/Gal4 in transactivation assay
T2 sequence (Q07869 whole entry): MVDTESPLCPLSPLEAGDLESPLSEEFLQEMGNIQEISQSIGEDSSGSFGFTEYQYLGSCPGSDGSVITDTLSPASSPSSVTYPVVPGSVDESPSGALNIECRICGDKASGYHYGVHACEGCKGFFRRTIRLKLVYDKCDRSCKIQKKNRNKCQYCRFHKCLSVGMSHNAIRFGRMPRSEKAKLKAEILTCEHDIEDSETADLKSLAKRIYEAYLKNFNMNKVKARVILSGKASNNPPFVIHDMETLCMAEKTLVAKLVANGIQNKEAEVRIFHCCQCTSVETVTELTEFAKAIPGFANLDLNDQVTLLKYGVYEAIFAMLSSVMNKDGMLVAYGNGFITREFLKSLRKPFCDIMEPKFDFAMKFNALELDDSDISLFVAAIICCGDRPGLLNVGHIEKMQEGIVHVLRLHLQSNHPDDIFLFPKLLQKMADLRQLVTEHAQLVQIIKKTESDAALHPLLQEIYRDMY

| SMILES | EC50 [1] | Ki [2] | EC50 [3] |
| --- | --- | --- | --- |
| CCCCCOc1ncccc1C(O)C/C=C/CCCC(=O)OC (stereo unspecified) | > 10000 nM | > 10000 nM | > 10000 nM |
| CCCCCOc1ncccc1C(O)CCCCCCC(=O)OC (stereo unspecified) | > 10000 nM | > 10000 nM | > 10000 nM |
| CCCCCOc1ncccc1C(O)C/C=C/CCCC(=O)O (stereo unspecified) | > 10000 nM | > 10000 nM | > 10000 nM |
| CCCCCOc1ccccc1C(O)CCCCCCC(=O)O (stereo unspecified) | > 10000 nM | 6690 nM | > 10000 nM |
| CCCCCOc1ccccc1C(O)CCCCCCC(=O)OC (stereo unspecified) | > 10000 nM | 515 nM | > 10000 nM |
| CCCCCOc1ncccc1C(O)CCCCCCC(=O)O (stereo unspecified) | > 10000 nM | > 10000 nM | > 10000 nM |
| CCCCCOc1cc2ccccc2cc1C(O)CCCCCCCC(=O)OC (stereo unspecified) | 1360 nM | 579 nM | 1530 nM |
| CCCCCOc1nc2ccccc2cc1C(O)CCCCCCCC(=O)OC (stereo unspecified) | > 10000 nM | > 10000 nM | > 10000 nM |
| CCCCCOc1ccccc1C(O)CC=CCCCC(=O)OC (stereo unspecified) | 28 nM | 3760 nM | > 10000 nM |
| CCCCCOc1ccccc1C(O)CC=CCCCC(=O)O (stereo unspecified) | 340 nM | > 10000 nM | > 10000 nM |
| CCCCCOc1nc2ccccc2cc1C(O)CC=CCCCC(=O)OC (stereo unspecified) | 1550 nM | 1330 nM | 1300 nM |
| CCCCCOc1nc2ccccc2cc1C(O)CC=CCCCC(=O)O (stereo unspecified) | 1200 nM | > 10000 nM | 1090 nM |
| CCCCCOc1ncccc1C(O)CC#CCCCC(=O)OC (stereo unspecified) | 549 nM | > 10000 nM | 1630 nM |

Now from value to molecule:

| EC50 [1] | Ki [2] | EC50 [3] | SMILES |
| --- | --- | --- | --- |
| 642 nM | 1050 nM | 173 nM | CCCCCOc1ccccc1C(O)CC#CCCCC(=O)OC (stereo unspecified) |
| 1410 nM | > 10000 nM | 262 nM | CCCCCOc1nc2ccccc2cc1C(O)CC#CCCCC(=O)OC (stereo unspecified) |
| > 10000 nM | 4390 nM | – | CCCCCOc1cc2ccccc2cc1C(O)CC#CCCCC(=O)O (stereo unspecified) |
| > 10000 nM | 695 nM | 1140 nM | CCCCCOc1cc2ccccc2cc1C(O)CC#CCCCC(=O)OC (stereo unspecified) |
| > 10000 nM | 718 nM | 1450 nM | CCCCCOc1cc2ccccc2cc1C(O)C/C=C/CCCC(=O)OC (stereo unspecified) |
| > 10000 nM | 969 nM | 1480 nM | CCCCCOc1cc2ccccc2cc1C(O)CCCCCCC(=O)O (stereo unspecified) |
| > 10000 nM | > 10000 nM | 1540 nM | CCCCCOc1ncccc1C(O)CC#CCCCC(=O)O (stereo unspecified) |
| 1500 nM | 1030 nM | 1190 nM | CCCCCOc1cc2ccccc2cc1C(O)CC=CCCCC(=O)O (stereo unspecified) |
| 1570 nM | 2860 nM | 1400 nM | CCCCCOc1nc2ccccc2cc1C(O)CCCCCC(=O)O (stereo unspecified) |
| > 10000 nM | > 10000 nM | > 10000 nM | CCCCCOc1ccccc1C(O)CC#CCCCC(=O)O (stereo unspecified) |
| 617 nM | 947 nM | 114 nM | CCCCCOc1nc2ccccc2cc1C(O)CC#CCCCC(=O)O (stereo unspecified) |
